For orientation: IC50 means the concentration needed to halve the response being measured.

The first assay addresses T1, TGFβ R1 (Homo sapiens, UniProt P36897).
T1 sequence (P36897 34-503): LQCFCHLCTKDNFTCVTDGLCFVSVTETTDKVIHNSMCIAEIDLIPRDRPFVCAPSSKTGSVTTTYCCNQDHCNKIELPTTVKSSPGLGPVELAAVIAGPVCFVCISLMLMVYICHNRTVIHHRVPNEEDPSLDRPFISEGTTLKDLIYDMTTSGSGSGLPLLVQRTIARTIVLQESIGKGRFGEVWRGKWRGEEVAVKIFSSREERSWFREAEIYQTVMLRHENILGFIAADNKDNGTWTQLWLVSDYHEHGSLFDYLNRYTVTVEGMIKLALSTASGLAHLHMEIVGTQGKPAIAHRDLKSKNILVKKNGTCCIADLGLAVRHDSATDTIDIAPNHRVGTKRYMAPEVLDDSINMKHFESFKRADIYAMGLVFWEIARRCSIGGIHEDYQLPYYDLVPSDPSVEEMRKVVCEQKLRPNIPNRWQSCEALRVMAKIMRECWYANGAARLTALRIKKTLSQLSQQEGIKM
Description: TGFβ R1 autophosphorylation protocol (33P-ATP, phosphocellulose filter plate). It is filed as biochemical. Conditions: 10 uM ATP, 170 nM TGFβ R1, 20 minutes at room temperature, read-out: IC50 for Kinase Inhibition. The gist of the method:
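Radiometric autophosphorylation: 170 nM enzyme with compound (≤1% DMSO), 10 uM ATP plus γ-33P-ATP, […] in 20 mM MOPS pH 7, 20 min at room temperature. Reaction stopped on phosphocellulose filter, washed with H3PO4 and ethanol, counted by scintillation.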
`COc1cnc(-c2cc(Cl)ccc2F)nc1Nc1ccncc1C(=O)NCCCNCCC1O[C@H](CO)[C@@H](O)[C@H](O)[C@@H]1O` (stereo partly shown) [Compound 154, 4-[2-(5-Chloro-2-fluoro-phenyl)-5-methoxy-pyrimidin-4-ylamino]-N-{3-[2-(3,4,5-trihydroxy-6-hydroxymethyl-tetrahydro-pyran-2-yl)-ethylamino]-propyl}-nicotinamide]: the IC50 came out at 10 nM.
Still for that read-out and setting: under `COc1cnc(-c2cc(Cl)ccc2F)nc1Nc1ccncc1C(=O)NCCCN1CC[C@@H](F)C1` [Compound 155, 4-[2-(5-Chloro-2-fluoro-phenyl)-5-methoxy-pyrimidin-4-ylamino]-N-[3-(3-fluoro-pyrrolidin-1-yl)-propyl]-nicotinamide] stands 8 nM.
As to `COc1cnc(-c2cc(Cl)ccc2F)nc1Nc1ccncc1C(=O)NCCNCCOC1O[C@H](COC(C)=O)[C@H](OC(C)=O)[C@H](OC(C)=O)[C@H]1OC(C)=O` (stereo partly shown) [Compound 157, Acetic acid 3,4,5-triacetoxy-6-{2-[2-[{4-[2-(5-chloro-2-fluoro-phenyl)-5-methoxy-pyrimidin-4-ylamino]-pyridine-3-carbonyl}amino)-ethylamino]-ethoxy}-tetrahydro-pyran-2-ylmethyl-ester], the IC50 was 25 nM.
In the case of `COc1cnc(-c2cc(Cl)ccc2F)nc1Nc1ccncc1C(=O)NCCNCCOC1O[C@H](CO)[C@H](O)[C@H](O)[C@H]1O` (stereo partly shown) [Compound 158], the IC50 was 5 nM.
On the same count and under the same terms, under `COc1cnc(-c2cc(Cl)ccc2F)nc1Nc1ccncc1C(=O)NCCNC(=O)COC1O[C@H](CO)[C@H](O)[C@H](O)[C@H]1O` (stereo partly shown) [Compound 159, 4-[2-(5-Chloro-2-fluoro-phenyl)-5-methoxy-pyrimidin-4-ylamino]-N-{2-[2-(3,4,5-trihydroxy-6-hydroxymethyl-tetrahydro-pyran-2-yloxy)-acetylamino]-ethyl}-nicotinamide] stands 58 nM.

Still in this assay, the particulars now being: 10 uM ATP, 170 nM TGFβ R1, room temperature 20 minutes, read-out: IC50 for Kinase Inhibition.
As to `COc1cnc(-c2cc(Cl)ccc2F)nc1Nc1ccncc1C(=O)NC1CC1CO` (stereo not shown) [Compound 160, 4-[2-(5-Chloro-2-fluoro-phenyl)-5-methoxy-pyrimidin-4-ylamino]-N-(2-hydroxymethyl-cyclopropyl)-nicotinamide], the IC50 worked out at 9 nM.
Take `CC(C)c1cnc(-c2cc(Cl)ccc2F)nc1Nc1ccncc1C(=O)NCCCN1CCCC1` [Compound 161, 4-[2-(5-Chloro-2-fluoro-phenyl)-5-isopropyl-pyrimidin-4-ylamino]-N-(3-pyrrolidin-1-yl-propyl)-nicotinamide]: the IC50 was 4 nM.
For `COc1cnc(-c2cc(Cl)ccc2F)nc1Nc1ccncc1C(=O)NC1(CO)CC1` [Compound 162, 4-[2-(5-Chloro-2-fluoro-phenyl)-5-methoxy-pyrimidin-4-ylamino]-N-(1-hydroxymethyl-cyclopropyl)-nicotinamide], the IC50 came out at 42 nM.
In the case of `COc1cnc(-c2cc(Cl)ccc2F)nc1Nc1ccncc1C(=O)NCCCOCC(O)CO` (stereo not shown) [Compound 163, 4-[2-(5-Chloro-2-fluoro-phenyl)-5-methoxy-pyrimidin-4-ylamino]-N-[3-(2,3-dihydroxy-propoxy)-propyl]-nicotinamide], the IC50 came out at 33 nM.
As for `CC(C)c1cnc(-c2cc(Cl)ccc2F)nc1Nc1ccncc1C(=O)NCCCN1CCC[C@H]1CO` [Compound 164, 4-[2-(5-Chloro-2-fluoro-phenyl)-5-isopropyl-pyrimidin-4-ylamino]-N-[3-(2-hydroxymethyl-pyrrolidin-1-yl)-propyl]-nicotinamide], the IC50 was found to be 2 nM.
The same measure, in the same setting: the value for `CC(C)(O)CNC(=O)c1cnccc1Nc1nc(-c2cc(Cl)ccc2F)ncc1C1CC1` [Compound 165] was 27 nM; that for `COc1cnc(-c2cc(Cl)ccc2F)nc1Nc1ccncc1C(=O)NCCCN1CCC[C@@H]1C(N)=O` [Compound 166, N-[3-(2-Carbamoyl-pyrrolidin-1-yl)-propyl]-4-[2-(5-chloro-2-fluoro-phenyl)-5-methoxy-pyrimidin-4-ylamino]-nicotinamide] was 5 nM.
Consider `CCNC(=O)[C@@H]1CCCN1CCCNC(=O)c1cnccc1Nc1nc(-c2cc(Cl)ccc2F)ncc1OC` [Compound 167, 4-[2-(5-Chloro-2-fluoro-phenyl)-5-methoxy-pyrimidin-4-ylamino]-N-[3-(2-ethylcarbamoyl-pyrrolidin-1-yl)-propyl]-nicotinamide], for which the 50% inhibitory concentration (IC50) was found to be 28 nM.
`COc1cnc(-c2cc(Cl)ccc2F)nc1Nc1ccncc1C(=O)NCC(C)=O` [Compound 168, 4-[2-(5-Chloro-2-fluoro-phenyl)-5-methoxy-pyrimidin-4-ylamino]-N-(2-oxo-propyl)-nicotinamide]: the IC50 came to 24 nM.
Same read-out and setting: under `CC(=O)CNC(=O)c1cnccc1Nc1nc(-c2cc(Cl)ccc2F)ncc1C(C)C` [Compound 169, 4-[2-(5-Chloro-2-fluoro-phenyl)-5-isopropyl-pyrimidin-4-ylamino]-N-(2-oxo-propyl)-nicatinamide] stands 3 nM; under `COc1cnc(-c2cc(Cl)ccc2F)nc1Nc1ccncc1C(=O)NCCNCC[C@@H]1OC[C@@H](O)[C@H](O)[C@H]1O` [Compound 170, 4-[2-(5-Chloro-2-fluoro-phenyl)-5-methoxy-pyrimidin-4-ylamino]-N-{2-[2-(3,4,5-trihydroxy-tetrahydro-pyran-2-yl)-ethylamino]-ethyl}-nicotinamide], 6 nM; under `CC(C)c1cnc(-c2cc(Cl)ccc2F)nc1Nc1ccncc1C(=O)NCCCN1CCC[C@H]1C(=O)N(C)C` [Compound 171, 4-[2-(5-Chloro-2-fluoro-phenyl)-5-isopropyl-pyrimidin-4-ylamino]-N-[3-(2-dimethylcarbamoyl-pyrrolidin-1-yl)-propyl]-nicotinamide], 5 nM.
For the compound `CC(C)c1cnc(-c2cc(Cl)ccc2F)nc1Nc1ccncc1C(=O)NC1CC1CO` (stereo not shown) [Compound 172, 4-[2-(5-Chloro-2-fluoro-phenyl)-5-isopropyl-pyrimidin-4-ylamino]-N-(2-hydroxymethyl-cyclopropyl)-nicotinamide], the IC50 is 5 nM.
Same read-out and setting: under `COc1cnc(-c2cc(Cl)ccc2F)nc1Nc1ccncc1C(=O)NCCNCC[C@H]1C[C@H](O)[C@@H](CO)O1` [Compound 173, 4-[2-(5-Chloro-2-fluoro-phenyl)-5-methoxy-pyrimidin-4-ylamino]-N-{2-[2-(4-hydroxy-5-hydroxymethyl-tetrahydro-furan-2-yl)-ethylamino]-ethyl}-nicotinamide] stands 6 nM; under `COc1cnc(-c2cc(Cl)ccc2F)nc1Nc1ccncc1C(=O)N1CC[C@@H](N)C1` [Compound 174, (3-Amino-pyrrolidin-1-yl)-{4-[2-(5-chloro-2-fluoro-phenyl)-5-methoxy-pyrimidin-4-ylamino]-pyridin-3-yl}-methanone], 1160 nM; under `COC(=O)C1CCCN1CCCNC(=O)c1cnccc1Nc1nc(-c2cc(Cl)ccc2F)ncc1OC` (stereo not shown) [Compound 175, 1-[3-({4-[2-(5-Chloro-2-fluoro-phenyl)-5-methoxy-pyrimidin-4-ylamino]-pyridine-3-carbonyl}-amino)-propyl]-pyrrolidine-2-carboxylic acid methyl ester], 31 nM.
The same measure, in the same setting: the value for `COc1cnc(-c2cc(Cl)ccc2F)nc1Nc1ccncc1C(=O)NCCNCC[C@@H]1O[C@H](CO)[C@@H](O)[C@H]1O` [Compound 176, 4-[2-(5-Chloro-2-fluoro-phenyl)-5-methoxy-pyrimidin-4-ylamino]-N-{2-[2-(3,4-dihydroxy-5-hydroxymethyl-tetrahydro-furan-2-yl)-ethylamino]-ethyl}-nicotinamide] was 5 nM.
On to `CNC(=O)[C@@H]1CCCN1CCCNC(=O)c1cnccc1Nc1nc(-c2cc(Cl)ccc2F)ncc1C(C)C` [Compound 177, 4-[2-(5-Chloro-2-fluoro-phenyl)-5-isopropyl-pyrimidin-4-ylamino]-N-[3-(2-methylcarbamoyl-pyrrolidin-1-yl)-propyl]-nicotinamide], for which the IC50 worked out at 11 nM.
Consider `CC(C)c1cnc(-c2cc(Cl)ccc2F)nc1Nc1ccncc1C(=O)NC1CCN(C)CC1` [Compound 178, 4-[2-(5-Chloro-2-fluoro-phenyl)-5-isopropyl-pyrimidin-4-ylamino]-N-(1-methyl-piperidin-4-yl)-nicotinamide], for which the IC50 amounted to 3 nM.
As to `CC(C)c1cnc(-c2cc(Cl)ccc2F)nc1Nc1ccncc1C(=O)NC1CC1CO` (stereo not shown) [Compound 179, 4-[2-(5-Chloro-2-fluoro-phenyl)-5-isopropyl-pyrimidin-4-ylamino]-N-(2-hydroxymethyl-cyclopropyl)-nicotinamide], the IC50 was 5 nM.
The same measure, in the same setting: under `CC(C)c1cnc(-c2cc(Cl)ccc2F)nc1Nc1ccncc1C(=O)NCCCN1CCC[C@@H]1C(=O)N1CCCC1` [Compound 180] stands 5 nM; under `CC(C)c1cnc(-c2cc(Cl)ccc2F)nc1Nc1ccncc1C(=O)NCCCN1CCC[C@@H]1C(=O)N(C)C` [Compound 181, 4-[2-(5-Chloro-2-fluoro-phenyl)-5-isopropyl-pyrimidin-4-ylamino]-N-[3-(2-dimethylcarbamoyl-pyrrolidin-1-yl)-propyl]-nicotinamide], 6 nM; under `CNC(=O)[C@H]1CCCN1CCCNC(=O)c1cnccc1Nc1nc(-c2cc(Cl)ccc2F)ncc1C(C)C` [Compound 182, 4-[2-(5-Chloro-2-fluoro-phenyl)-5-isopropyl-pyrimidin-4-ylamino]-N-[3-(2-methylcarbamoyl-pyrrolidin-1-yl)-propyl]-nicotinamide], 11 nM.

The record behind these values is patent US20060281763A1, “Carboxamide inhibitors of TGFbeta” (priority 2005, published 2006).
